Measurements: patent US20180125993A1 (BEIJING COTIMES BIOTECH COMPANY LIMITED, priority 2014, published 2018)

What was measured:
HT-29 = assay: In vitro cytotoxic sensitivity of CTB006; type: cell-based, human; conditions: HT-29, Colorectal cancer
Huh-7 = assay: In vitro cytotoxic sensitivity of CTB006; type: cell-based, human; conditions: Huh-7, Liver cancer
Colo205 = assay: Human colon cancer Colo205 subcutaneous model (Day 28 after treatment); type: in vivo, nude mice; conditions: for TGI calculated using the tumor volume / TGI calculated using the tumor weights: repeated experiment
Method: Tumor cells (i.e., MIA-PaCa-2, WiDr, H2122, colo205) were inoculated in nude mice's flank at 5×10^6 cells per mouse. The mice were grouped when the average volume of tumors reached about 100˜200 mm^3. “QW”=weekly dose. “Q3d”=dosed every third day. “BiW”=biweekly.
The bodyweight and major/minor axis of the mice were measured twice a week, and the tumor volumes were calculated using the formula: Tumor volume=1/2×major axis[…]. […] “T” represents average tumor volume of the experimental group (cm^3), and “C” represents average tumor volume of the control group (cm^3). The animals were monitored at all times. The bodyweight and major/minor axis or mice were measured twice a week.
Tumor volumes were represented with average±standard error. […] P<0.05 represents significant difference.

colon cancer, CS146, 2# = assay: Patients primary tumor tissue subcutaneous model (Day 30 after treatment); type: in vivo, nude mice; conditions: HuCTB006 10 mg/kg i.v. QW × 6w alone
Description: Fresh primary tumor tissues from patients were implanted in NOD/SCID mice's flank, which developed into a primary tumor, which was then transferred to the nude mice's flank to allow the tumor reaching an exponential growth phase, and the tumor was named 1# tumor, and so on. When the tumor volume and number reached passage requirements, they were implanted into the right flank of nude mice. When the tumors' average volumes reached 100-200 mm^3, the mice were grouped.
The bodyweight and major/minor axis of mice were measured twice a week, and Tumor Growth Inhibition (TGI) and tumor volume were calculated same as in 5.1.5. In addition, to evaluate the synergetic effect of drug combination in tumor growth, Jin Zhengjun Q value judgment method was used with the follow formula: Q=Ea+b/(Ea+Eb−Ea×Eb). Ea+b is the inhibition ratio of drug combination, Ea and Eb are the inhibition ratio of each of drug treatment when it is administered alone. […] The animals were monitored, and when the experiments were concluded, mice were sacrificed and tumors were extracted and weighted. All the animal experiments confer to the regulations of animal's welfare and the management of experimental animal usage.
Tumor volumes were represented with average±standard error. Data analysis was done using Spss16.0, One-Way ANOVA, LSD (homogeneity of variance) or Dunnett T3 (non-homogeneity of variance). […]

SW620 = assay: In vitro cytotoxic sensitivity of CTB006; type: cell-based, human; conditions: SW620, Colorectal cancer
H460 = assay: In vitro cytotoxic sensitivity of CTB006; type: cell-based, human; conditions: H460, Lung cancer
BT-20 = assay: In vitro cytotoxic sensitivity of CTB006; type: cell-based, human; conditions: BT-20, Breast cancer
OVCA3 = assay: In vitro cytotoxic sensitivity of CTB006; type: cell-based, human; conditions: OVCA3, Ovarian cancer
A427 = assay: In vitro cytotoxic sensitivity of CTB006; type: cell-based, human; conditions: A427, Lung cancer
PANC-1 = assay: In vitro cytotoxic sensitivity of CTB006; type: cell-based, human; conditions: PANC-1, Pancreatic cancer
[1] = HuCTB006 0.2 mg/kg i.v. QW × 4W
[2] = HuCTB006 0.2 mg/kg i.v. QW × 4W, 0.2 mg/kg
[3] = HuCTB006 0.6 mg/kg i.v. QW × 4W
[4] = HuCTB006 1.8 mg/kg i.v. QW × 4W
[5] = HuCTB006 5.4 mg/kg i.v. QW × 4W

HuCTB006: Monospecific humanized chimeric monoclonal antibody directed to TRAIL-R2 receptor; heavy chain SEQ ID NO: 14, light chain SEQ ID NO: 12
In vitro cytotoxic sensitivity of CTB006 (HT-29): Non-responder
In vitro cytotoxic sensitivity of CTB006 (Huh-7): Non-responder
T/C % (Calculated using tumor volume) (Colo205; [1]): 66.90%
Time of tumor volume changed significantly (Colo205; [1]): 10 Days after first treatment
Tumor Volume Mean ± SEM (Colo205; [1]): 1.24 ± 0.20 cm^3
Tumor weight Mean ± SEM (Colo205; [1]): 0.84 ± 0.14 g
TGI (Calculated using tumor volume) (Colo205; [2]): 35.62%
TGI (Calculated using tumor weight) (Colo205; [2]): 33.30%
T/C % (Calculated using tumor volume) (Colo205; [3]): 14.41%
Tumor Volume Mean ± SEM (Colo205; [3]): 0.29 ± 0.13 cm^3
Tumor weight Mean ± SEM (Colo205; [3]): 0.20 ± 0.10 g
T/C % (Calculated using tumor volume) (Colo205; [4]): 19.91%
Tumor Volume Mean ± SEM (Colo205; [4]): 0.38 ± 0.16 cm^3
Tumor weight Mean ± SEM (Colo205; [4]): 0.23 ± 0.12 g
T/C % (Calculated using tumor volume) (Colo205; [5]): 14.80%
Time of tumor volume changed significantly (Colo205; [5]): 7~10^2 Days after first treatment
Tumor Volume Mean ± SEM (Colo205; [5]): 0.28 ± 0.10 cm^3
Tumor weight Mean ± SEM (Colo205; [5]): 0.15 ± 0.07 g
Bodyweights (Colo205; all HuCTB006 treatment groups): did not show any notably changes
Tumor regression (Colo205; first experiment, treatment groups): four animals of HuCTB006 treatment groups showed tumor regression
TGI calculated using the tumor volume (Colo205; HuCTB006 0.2 mg/kg): 56.16%
TGI calculated using the tumor weights (Colo205; HuCTB006 0.2 mg/kg): 58.68%
TGI calculated using the tumor volume (Colo205; HuCTB006 0.6 mg/kg): 79.75%
TGI calculated using the tumor weights (Colo205; HuCTB006 0.6 mg/kg): 82.34%
TGI calculated using the tumor volume (Colo205; HuCTB006 1.8 mg/kg): 93.65%
TGI calculated using the tumor weights (Colo205; HuCTB006 1.8 mg/kg): 94.33%
TGI calculated using the tumor volume (Colo205; HuCTB006 5.4 mg/kg): 87.12%
TGI calculated using the tumor weights (Colo205; HuCTB006 5.4 mg/kg): 89.90%
inhibitory effect on the growth of CS146 (colon cancer, CS146, 2#): did not
In vitro cytotoxic sensitivity of CTB006 (SW620): Non-responder
In vitro cytotoxic sensitivity of CTB006 (H460): Partial-responder
In vitro cytotoxic sensitivity of CTB006 (BT-20): Non-responder
In vitro cytotoxic sensitivity of CTB006 (OVCA3): Non-responder
In vitro cytotoxic sensitivity of CTB006 (A427): Non-responder
In vitro cytotoxic sensitivity of CTB006 (PANC-1): Non-responder
